Test results from the NIST ThermoML archive (doi:10.1021/je0400052).
Numbers after ± are expanded uncertainties.

Legend:
[1] = 101.33 kPa, Liquid
[2] = refractive index (Na D-line) (dimensionless); settings: 101.33 kPa, Liquid

Cc1ccc(C)cc1 [1,4-dimethylbenzene] gave a mass density ([1]; 303.15 K) of 851.9 ± 1.8 kg/m3, a viscosity ([1]; 303.15 K) of 0.566 ± 0.016 mPa·s and a mass density ([1]; 313.15 K) of 844 ± 2 kg/m3. For the same molecule, the viscosity ([1]; 313.15 K) was 0.517 ± 0.015 mPa·s, the refractive index ([2]; 303.15 K) was 1.4911 ± 0.0025 and the refractive index ([2]; 313.15 K) was 1.4902 ± 0.0025.

CCOC(=O)c1ccccc1 [ethyl benzoate] gave a mass density ([1]; 303.15 K) of 1037.4 ± 2.3 kg/m3, a viscosity ([1]; 303.15 K) of 1.748 ± 0.042 mPa·s and a mass density ([1]; 313.15 K) of 1028.5 ± 2.4 kg/m3. The viscosity ([1]; 313.15 K) was 1.438 ± 0.035 mPa·s, the refractive index ([2]; 303.15 K) was 1.5009 ± 0.0025 and the refractive index ([2]; 313.15 K) was 1.4997 ± 0.0025.

Work on CCOC=O [ethyl methanoate] yielded a mass density ([1]; 303.15 K) of 908.1 ± 2.1 kg/m3, a viscosity ([1]; 303.15 K) of 0.366 ± 0.011 mPa·s and a mass density ([1]; 313.15 K) of 894.9 ± 2.2 kg/m3. It also gave a viscosity ([1]; 313.15 K) of 0.339 ± 0.011 mPa·s, a refractive index ([2]; 303.15 K) of 1.3552 ± 0.0032 and a refractive index ([2]; 313.15 K) of 1.3549 ± 0.0032.

CCc1ccccc1 [ethylbenzene] showed a mass density ([1]; 303.15 K) of 857.6 ± 1.8 kg/m3, a viscosity ([1]; 303.15 K) of 0.597 ± 0.016 mPa·s and a mass density ([1]; 313.15 K) of 849.2 ± 2 kg/m3. For the same molecule, the viscosity ([1]; 313.15 K) was 0.538 ± 0.015 mPa·s, the refractive index ([2]; 303.15 K) was 1.491 ± 0.0025 and the refractive index ([2]; 313.15 K) was 1.4891 ± 0.0025.
